Measurements published in patent US9345682B2, “Inhibition of STAT3 signal transduction for human cancer therapy” (University of South Florida, priority 1999, dated 2016).

What was measured:
STAT3 = assay: EMSA (SIE probe) of constitutive STAT3 DNA-binding in U266 myeloma cells; format: cell-based, human; settings: 50 mM AG490, within 16 to 24 hours
Method: U266 and RPMI 8226 cell lines are originally obtained from ATCC and maintained in RPMI 1640 medium supplemented with 10% fetal calf serum (FCS). For detection of STATs in primary bone marrow (BM) cells, BM aspirates are diluted 1:2 in phosphate-buffered saline (PBS) and mononuclear cells are separated by the standard Ficoll-Hypaque (Pharmacia LKB Biotechnology) sedimentation procedure. Mononuclear cells are washed twice with PBS, and nuclear extracts are prepared as described below. For inhibitor studies, a minimum of 10^7 U266 cells are treated with 1 mg/ml Sant7 or with […] AG490 (Meydan, et al., 1996, Nature 379:645-648). NIH 3T3 cells overexpressing the human EGF receptor have been described (Garcia, et al., 1997, Immunity 5:449-460).
Nuclear extracts are prepared as previously described. Briefly, nuclei are isolated and extracted in hypertonic buffer (20 mM HEPES, pH 7.9, 420 mM NaCl, 1 mM EDTA, 1 mM EGTA, 20% glycerol, 20 mM NaF, 1 mM Na3VO4, 1 mM Na2P4O7, 1 mM DTT, 0.5 mM PMSF, 0.1 mM aprotinin, 1 mM leupeptin, and 1 mM antipain). […] Protein-DNA complexes are resolved on 5% non-denaturing polyacrylamide gels and analyzed by autoradiography. […]

U266 cells = assay: Cell cycle analysis and spontaneous cell death of U266 cells; format: cell-based, human
Method: For surface detection of the Fas receptor, 10^6 cells are suspended in […] PBS with 2.5 mg/ml mouse IgM (Sigma) and […] UB2 antibody (MBL) or IgG1, isotype control serum (Dako). Following 30 min incubation at room temperature, cells are washed with PBS, and incubated in the dark for 30 min with goat anti-mouse Ig-FITC. Fluorescence is measured on a FACScan flow cytometer and analyzed using CellQuest software (Becton Dickinson). For cell cycle analysis, 10^6 cells are fixed in ice-cold ethanol for a minimum of 2 h, washed with PBS, and stained with 5 mg/ml propidium iodide (PI) and […] at 37° C. for 30 min prior to analysis by flow cytometry. Sensitivity to Fas-mediated apoptosis is determined by exposing cells to 500 ng/ml agonistic antibody (CH-11, MBL) or 100 ng/ml Fas ligand (Alexis) for 18-24 h. Apoptosis is measured by staining with Annexin V-FITC (Clontech) and flow cytometry analysis. Fas-specific death is calculated as (% Annexin V positive cells in the CH-11 treated population)−(% Annexin V positive cells in the IgM control population). Programmed cell death in cells transfected with the bicistronic green fluorescent protein vectors (pIRES-EGFP or pIRES-Stat3b) is analyzed after staining with Annexin V-PE (Pharmingen) by two color flow cytometry analysis. […]

[1] = system: Bcl-xL overexpressing U266 cells; assay: Drug-induced apoptosis in U266 cells overexpressing Bcl-xL; format: cell-based, human; settings: stable U266 clones overexpressing Bcl-xL; 24 h for melphalan and mitoxantrone
Method: FIG. 23 Enforced Overexpression of Bcl-x Confers Resistance to Chemotherapy. Panel A: U266 cells are transfected with a CMV expression vector encoding Bcl-x, tagged with the FLAG epitope. Several stable, independent clones overexpressing Bcl-xL, as well as empty vector controls (Neo), are isolated and analyzed by Western blot with antibodies to Bcl-xL, or the FLAG epitope tag. B: The indicated cell lines are incubated with either melphalan (LPAM) or mitoxantrone for 24 h, and apoptosis is monitored by AnnexinV-FITC staining and flow cytometry. Overexpression of Bcl-xL protects the cells from chemotherapy-induced apoptosis.
These Bcl-xL overexpressing cells are resistant to apoptosis induced by AG490, as predicted since the ectopic Bcl-xL is expressed from a CMV promoter and is thus independent of JAK-STAT signaling. […] These findings support one embodiment of the present invention, that Bcl-x confers resistance to chemotherapy-induced apoptosis, and therefore that inhibition of STAT3 signaling promotes chemotherapy-induced apoptosis.

MOPC tumors = assay: TUNEL assay of MOPC tumors; format: in vivo, BALB/c mice; settings: regressing MOPC tumors
Method: Terminal deoxynucleotidyltransferase-mediated dUTP-Digoxigenin nick-end-labeling (TUNEL) assay. MOPC tumors that receive either AG-490 or 50% DMSO treatment are used for this assay. Three-μm sections from paraffinized tissues are dewaxed and rehydrated according to standard protocols. After incubation with proteinase K (30 min at 21° C.), the TUNEL reaction mixture (Boehringer Mannheim, Indianapolis, Ind.) is added to rinsed slides, which are incubated in a humidified chamber for […] at 37° C. This is followed by incubating with Converter-AP (50 ml) and substrate solution (50 ml). The reaction is visualized by light microscopy.

splenocytes = assay: IL-12-induced IFN-g production by splenocytes ex vivo; format: in vivo; settings: mice treated i.p. with AG-490 (0.5 mg) daily 4 days, rIL-12 last two days
Method: Mice are treated daily with i.p. injections of […] of AG-490 (0.5 mg) or DMSO vehicle (50%) for a total of 4 days. During the last two days of AG-490 or DMSO treatment, daily i.p. injection of 400 ng of recombinant IL-12 (rIL-12) (Genetics Institute, Cambridge, Mass.) is also given simultaneously with either AG-490 or DMSO. Two days after the last treatment of AG-490, single cell suspensions of splenocytes are prepared from individual mice. The splenocytes are treated with 100 U/ml rIL-2 to induce IFN-g production. IFN-g ELISA (Genzyme, Cambridge, Mass.) is performed as described previously (Tan, et al., 1996, Cancer Res 56:3399).

With `N#C/C(=C\c1ccc(O)c(O)c1)C(=O)NCc1ccccc1` [AG490] as the molecule, how does the “constitutive STAT3 DNA-binding activity” value (STAT3) read?
Its value is “complete abrogation”.

And the spontaneous cell death (U266 cells; AG490, 72 hours)?
The spontaneous cell death was “extensive spontaneous cell death”.

And the “cells accumulating in G1” value (U266 cells; AG490 for 48 h)?
Its value is 70%.

And the “apoptosis induced in Bcl-xL overexpressing cells” value [1]?
Its value is “resistant”.

What about the “apoptotic tumor cells (TUNEL)” value (MOPC tumors) of the same molecule?
Its value is “high numbers of apoptotic cells”.

And the “IL-12-induced IFN-g production by splenocytes” value (splenocytes)?
Its value is “slight suppression”.
